Two compounds from BindingDB's records for doi:10.1016/j.chembiol.2015.10.013 (Pfizer, 2015) can be followed below.

Assay [1] deals with T1, CREB-binding protein (Homo sapiens, UniProt Q92793). Description: CBP Fluorescence Resonance Energy Transfer (FRET).
Assay [2] has as its target T2, Bromodomain-containing protein 4 (Homo sapiens, UniProt O60885). The assay is described as follows: BRD4 Fluorescence Polarization (FP).
Assay [3] deals with T2, Bromodomain-containing protein 4. Description: ITC. On the technique in general: ITC needs no label: the signal is the heat of the interaction.
The target in assay [4] is T1, CREB-binding protein. The assay is described as follows: ITC.

T1 sequence (Q92793 whole entry): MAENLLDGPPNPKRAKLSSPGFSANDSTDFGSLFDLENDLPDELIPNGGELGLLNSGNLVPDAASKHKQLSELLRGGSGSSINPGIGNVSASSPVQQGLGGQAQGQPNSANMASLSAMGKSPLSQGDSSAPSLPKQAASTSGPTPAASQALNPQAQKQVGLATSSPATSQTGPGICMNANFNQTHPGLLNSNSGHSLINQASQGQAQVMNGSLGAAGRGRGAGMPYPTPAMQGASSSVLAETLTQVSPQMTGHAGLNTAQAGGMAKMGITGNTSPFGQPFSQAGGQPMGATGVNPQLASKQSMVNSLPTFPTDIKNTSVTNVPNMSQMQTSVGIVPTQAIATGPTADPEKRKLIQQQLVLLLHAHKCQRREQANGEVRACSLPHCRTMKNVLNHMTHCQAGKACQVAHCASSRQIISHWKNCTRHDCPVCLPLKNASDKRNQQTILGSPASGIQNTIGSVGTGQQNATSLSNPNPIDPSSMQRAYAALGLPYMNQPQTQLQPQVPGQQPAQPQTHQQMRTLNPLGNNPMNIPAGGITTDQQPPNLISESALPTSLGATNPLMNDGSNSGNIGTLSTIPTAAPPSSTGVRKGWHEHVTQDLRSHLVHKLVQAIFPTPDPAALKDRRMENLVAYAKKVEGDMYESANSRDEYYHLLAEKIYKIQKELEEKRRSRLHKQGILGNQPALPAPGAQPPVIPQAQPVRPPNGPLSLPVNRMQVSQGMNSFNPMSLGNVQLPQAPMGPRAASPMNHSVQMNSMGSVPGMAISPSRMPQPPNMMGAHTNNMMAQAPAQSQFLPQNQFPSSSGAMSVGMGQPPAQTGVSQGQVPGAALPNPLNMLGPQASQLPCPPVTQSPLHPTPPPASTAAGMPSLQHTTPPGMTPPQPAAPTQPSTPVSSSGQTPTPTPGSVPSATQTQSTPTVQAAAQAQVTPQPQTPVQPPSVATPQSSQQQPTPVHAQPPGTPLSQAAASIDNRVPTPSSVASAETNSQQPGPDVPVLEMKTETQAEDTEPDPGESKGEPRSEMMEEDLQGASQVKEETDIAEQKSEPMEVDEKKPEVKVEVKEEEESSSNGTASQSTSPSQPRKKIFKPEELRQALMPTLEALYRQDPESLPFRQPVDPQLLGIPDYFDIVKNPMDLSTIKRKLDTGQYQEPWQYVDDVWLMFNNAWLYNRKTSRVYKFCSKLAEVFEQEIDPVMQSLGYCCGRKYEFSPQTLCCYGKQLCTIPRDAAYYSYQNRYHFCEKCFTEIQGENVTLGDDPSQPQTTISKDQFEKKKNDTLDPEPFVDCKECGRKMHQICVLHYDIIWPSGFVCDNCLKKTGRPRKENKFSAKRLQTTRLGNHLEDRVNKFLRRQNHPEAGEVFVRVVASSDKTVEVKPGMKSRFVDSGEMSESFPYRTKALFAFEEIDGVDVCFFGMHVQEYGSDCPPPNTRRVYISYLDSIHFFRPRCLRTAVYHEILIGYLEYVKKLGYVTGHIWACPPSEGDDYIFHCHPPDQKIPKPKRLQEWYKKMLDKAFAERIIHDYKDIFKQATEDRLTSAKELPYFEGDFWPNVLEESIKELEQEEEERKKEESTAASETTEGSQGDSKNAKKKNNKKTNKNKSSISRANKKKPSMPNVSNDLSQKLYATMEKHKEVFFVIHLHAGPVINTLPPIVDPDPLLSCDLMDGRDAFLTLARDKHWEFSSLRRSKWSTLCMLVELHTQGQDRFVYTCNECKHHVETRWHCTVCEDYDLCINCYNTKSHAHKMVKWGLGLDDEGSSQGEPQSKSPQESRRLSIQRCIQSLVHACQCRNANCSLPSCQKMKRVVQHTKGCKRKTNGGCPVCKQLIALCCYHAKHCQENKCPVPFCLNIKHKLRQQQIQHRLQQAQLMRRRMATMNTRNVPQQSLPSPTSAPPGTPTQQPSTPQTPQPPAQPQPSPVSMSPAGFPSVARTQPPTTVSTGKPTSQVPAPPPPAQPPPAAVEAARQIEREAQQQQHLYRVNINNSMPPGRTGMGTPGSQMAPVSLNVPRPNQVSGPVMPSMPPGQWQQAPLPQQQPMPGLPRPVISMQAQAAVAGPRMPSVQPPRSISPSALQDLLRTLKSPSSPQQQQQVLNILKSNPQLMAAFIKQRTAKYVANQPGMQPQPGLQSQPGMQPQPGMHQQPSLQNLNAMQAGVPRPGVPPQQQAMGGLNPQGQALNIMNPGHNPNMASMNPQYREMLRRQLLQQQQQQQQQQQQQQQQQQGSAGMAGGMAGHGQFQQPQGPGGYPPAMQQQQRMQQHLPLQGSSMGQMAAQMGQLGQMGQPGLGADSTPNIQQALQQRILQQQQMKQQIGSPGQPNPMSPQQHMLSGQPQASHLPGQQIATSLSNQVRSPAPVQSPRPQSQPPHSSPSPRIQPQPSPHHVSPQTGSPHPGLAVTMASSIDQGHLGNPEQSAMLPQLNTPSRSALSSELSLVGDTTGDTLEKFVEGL

For orientation: IC50 means the point on the concentration scale where inhibition reaches its midpoint. Usually Kd stands for the concentration at which binding is half-saturated. On to `CCCOc1ccc(CCc2nc3cc(-c4c(C)noc4C)ccc3n2CCN2CCOCC2)cc1` [PF-CBP1], for which the results for the IC50 in assay [1] and in assay [2] were 0.13 µM and 18.1 µM, respectively. Also, the Kd was greater than 20 µM in assay [3] and 0.19 µM in assay [4].
`COc1ccc(CCc2nc3c(C)c(-c4c(C)noc4C)c(C)cc3n2CCN2CCOCC2)cc1` [ISOX-INACT]: the IC50 in assay [1] was 10.6 µM; in assay [2], greater than 120 µM.
